Measurements: patent publication US20240409536A1, “COMPOUNDS AND METHODS FOR MODULATING SPLICING” (REMIX THERAPEUTICS INC., priority 2021, published 2024)

Assays:
HTT mRNA = assay: Splicing RT-qPCR assay, HTT canonical (CJ) and alternative (AJ) junction mRNA; type: cell-based; conditions: Homo sapiens, A673 or K562 cells, 24 hours; for IC50: decrease in canonical junction mRNA; for AC50: increase in alternative junction mRNA
Outline: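 Splice switching was scored by qPCR detection of the new alternative-exon junction (AJ) alongside the canonical junction (CJ). Cell lines A673 or K562 received compound 24 h, top dose 10 uM final.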

K562 cells = assay: Cell Titer Glo 2.0 cell viability assay in K562 cells; conditions: 72 hours

CNC1CCN(c2ccc(C(=O)Nc3cc(F)c4nc(C)cn4c3)c3ncc(OC)nc23)C1 (stereo in doubt) [Compound 227, (R)—N-(8-fluoro-2-methylimidazo[1,2-a]pyridin-6-yl)-2-methoxy-8-(3-(methylamino)pyrrolidin-1-yl)quinoxaline-5-carboxamide 2,2,2-trifluoroacetate]
IC50 (HTT mRNA): > 10 µM
AC50 (HTT mRNA): > 10 µM
Viability (K562 cells): A (A represents <100 nM)

Cc1cn2cc(NC(=O)c3ccc(N4CCC(NC(C)(C)C)C4)c4ccnnc34)cc(F)c2n1 (centres unmarked) [Compound 109]
IC50 (HTT mRNA): 1 to 10 µM
AC50 (HTT mRNA): 1 to 10 µM

Cc1cnc2c(C(=O)Nc3cc(F)c4nc(C)cn4c3)ccc(N3C[C@@H](C)N[C@@H](C)C3)c2n1 [Compound 217, 8-((3R,5S)-3,5-dimethylpiperazin-1-yl)-N-{8-fluoro-2-methylimidazo[1,2-a]pyridin-6-yl}-2-methylquinoxaline-5-carboxamide]
Viability (K562 cells): B (B represents 100-1000 nM)

CCNC1CCN(c2ccc(C(=O)Nc3cc(F)c4nc(C)cn4c3)c3nc(C)ccc23)CC1 [Compound 228, 5-[4-(ethylamino)piperidin-1-yl]-N-{8-fluoro-2-methylimidazo[1,2-a]pyridin-6-yl}-2-methylquinoline-8-carboxamide]
IC50 (HTT mRNA): 0.1 to 1 µM
AC50 (HTT mRNA): 0.1 to 1 µM
Viability (K562 cells): A (A represents <100 nM)

COCCOc1ccc2c(N3CCC(N(C)C)CC3)ccc(C(=O)Nc3cc(F)c4nc(C)cn4c3)c2n1 [Compound 229, 5-[4-(dimethylamino)piperidin-1-yl]-N-{8-fluoro-2-methylimidazo[1,2-a]pyridin-6-yl}-2-(2-methoxyethoxy)quinoline-8-carboxamide]
IC50 (HTT mRNA): > 10 µM
AC50 (HTT mRNA): > 10 µM
Viability (K562 cells): A (A represents <100 nM)

Cc1cn2cc(NCc3ccc(N4CCNCC4)c4ccnnc34)cc(F)c2n1 [Compound 230, 8-fluoro-2-methyl-N-{[5-(piperazin-1-yl)cinnolin-8-yl]methyl}imidazo[1,2-a]pyridin-6-amine]
IC50 (HTT mRNA): 1 to 10 µM
AC50 (HTT mRNA): > 10 µM
Viability (K562 cells): D (D represents greater than 10 μM in K562 cells)

CNC1CCN(c2ccc(C(=O)Nc3cc(F)c4nc(C)cn4c3)c3nnccc23)C1 (centres unmarked) [Compound 231, N-{8-fluoro-2-methylimidazo[1,2-a]pyridin-6-yl}-5-[3-(methylamino)pyrrolidin-1-yl] cinnoline-8-carboxamide]
IC50 (HTT mRNA): 1 to 10 µM
AC50 (HTT mRNA): 1 to 10 µM
Viability (K562 cells): B (B represents 100-1000 nM)

COCCOc1ccc2c(N3C[C@@H](C)N[C@@H](C)C3)ccc(C(=O)Nc3cc(F)c4nc(C)cn4c3)c2n1 [Compound 232, 5-[(3R,5S)-3,5-dimethylpiperazin-1-yl]-N-{8-fluoro-2-methylimidazo[1,2-a]pyridin-6-yl}-2-(2-methoxyethoxy)quinoline-8-carboxamide]
IC50 (HTT mRNA): 1 to 10 µM
AC50 (HTT mRNA): 1 to 10 µM

CCNC1CCN(c2ccc(C(=O)Nc3cc(F)c4nc(C)cn4c3)c3nc(OCCOC)ccc23)CC1 [Compound 233, 5-[4-(ethylamino)piperidin-1-yl]-N-{8-fluoro-2-methylimidazo[1,2-a]pyridin-6-yl}-2-(2-methoxyethoxy)quinoline-8-carboxamide]
IC50 (HTT mRNA): 1 to 10 µM
AC50 (HTT mRNA): 1 to 10 µM
Viability (K562 cells): A (A represents <100 nM)
